Assay results taken from ChEMBL document CHEMBL5230095, “Advances in research of spirodienone and its derivatives: Biological activities and synthesis methods” (Eur J Med Chem, 2020).
Values after ≈ are worked out from the molar mass of the structure shown.

How the values were obtained:
[1] = (§1) Cytotoxicity against MDCK cells; format: toxicity, cell-based, Canis lupus familiaris; details: dog, MDCK cells; read-out: TC50 (the source's name)
[2] = in vitro; details: dog, MDCK cells, TI
Description: Therapeutic index, ratio of TC50 for MDCK cells to IC50 for antiviral activity against influenza A virus (A/Hanfang/359/95(H3N2))

[3] = system: Influenza A virus; assay: microbe, parasite or virus in culture; details: H3N2, MDCK
Description: (§2) Antiviral activity against influenza A virus (A/Hanfang/359/95(H3N2)) infected in MDCK cells

[4] = system: Plasmodium falciparum; assay: Antimalarial activity against Plasmodium falciparum 3D7; format: functional, organism-based
[5] = system: Jurkat; assay: Cytotoxicity against human Jurkat cells; format: functional, cell-based
[6] = system: K562; assay: Cytotoxicity against human K562 cells; format: functional, cell-based
[7] = system: Staphylococcus aureus; assay: Antibacterial activity against Staphylococcus aureus; format: functional
[8] = system: A549; assay: Antiproliferative activity against human A549 cells; format: functional, cell-based
[9] = system: SW480; assay: Antiproliferative activity against human SW480 cells; format: functional, cell-based
[10] = system: SMMC-7721; assay: Antiproliferative activity against human SMMC-7721 cells; format: functional, cell-based
[11] = system: HL-60; assay: Antiproliferative activity against human HL-60 cells; format: functional, cell-based
[12] = system: HeLa; assay: Antiproliferative activity against human HeLa cells; format: functional, cell-based
[13] = system: MDA-MB-231; assay: Antiproliferative activity against human MDA-MB-231 cells; format: functional, cell-based
[14] = target: DNA polymerase alpha catalytic subunit (Homo sapiens, UniProt P09884); assay: Inhibition of DNA polymerase alpha (unknown origin)
DNA polymerase alpha catalytic subunit, sequence (P09884 whole entry): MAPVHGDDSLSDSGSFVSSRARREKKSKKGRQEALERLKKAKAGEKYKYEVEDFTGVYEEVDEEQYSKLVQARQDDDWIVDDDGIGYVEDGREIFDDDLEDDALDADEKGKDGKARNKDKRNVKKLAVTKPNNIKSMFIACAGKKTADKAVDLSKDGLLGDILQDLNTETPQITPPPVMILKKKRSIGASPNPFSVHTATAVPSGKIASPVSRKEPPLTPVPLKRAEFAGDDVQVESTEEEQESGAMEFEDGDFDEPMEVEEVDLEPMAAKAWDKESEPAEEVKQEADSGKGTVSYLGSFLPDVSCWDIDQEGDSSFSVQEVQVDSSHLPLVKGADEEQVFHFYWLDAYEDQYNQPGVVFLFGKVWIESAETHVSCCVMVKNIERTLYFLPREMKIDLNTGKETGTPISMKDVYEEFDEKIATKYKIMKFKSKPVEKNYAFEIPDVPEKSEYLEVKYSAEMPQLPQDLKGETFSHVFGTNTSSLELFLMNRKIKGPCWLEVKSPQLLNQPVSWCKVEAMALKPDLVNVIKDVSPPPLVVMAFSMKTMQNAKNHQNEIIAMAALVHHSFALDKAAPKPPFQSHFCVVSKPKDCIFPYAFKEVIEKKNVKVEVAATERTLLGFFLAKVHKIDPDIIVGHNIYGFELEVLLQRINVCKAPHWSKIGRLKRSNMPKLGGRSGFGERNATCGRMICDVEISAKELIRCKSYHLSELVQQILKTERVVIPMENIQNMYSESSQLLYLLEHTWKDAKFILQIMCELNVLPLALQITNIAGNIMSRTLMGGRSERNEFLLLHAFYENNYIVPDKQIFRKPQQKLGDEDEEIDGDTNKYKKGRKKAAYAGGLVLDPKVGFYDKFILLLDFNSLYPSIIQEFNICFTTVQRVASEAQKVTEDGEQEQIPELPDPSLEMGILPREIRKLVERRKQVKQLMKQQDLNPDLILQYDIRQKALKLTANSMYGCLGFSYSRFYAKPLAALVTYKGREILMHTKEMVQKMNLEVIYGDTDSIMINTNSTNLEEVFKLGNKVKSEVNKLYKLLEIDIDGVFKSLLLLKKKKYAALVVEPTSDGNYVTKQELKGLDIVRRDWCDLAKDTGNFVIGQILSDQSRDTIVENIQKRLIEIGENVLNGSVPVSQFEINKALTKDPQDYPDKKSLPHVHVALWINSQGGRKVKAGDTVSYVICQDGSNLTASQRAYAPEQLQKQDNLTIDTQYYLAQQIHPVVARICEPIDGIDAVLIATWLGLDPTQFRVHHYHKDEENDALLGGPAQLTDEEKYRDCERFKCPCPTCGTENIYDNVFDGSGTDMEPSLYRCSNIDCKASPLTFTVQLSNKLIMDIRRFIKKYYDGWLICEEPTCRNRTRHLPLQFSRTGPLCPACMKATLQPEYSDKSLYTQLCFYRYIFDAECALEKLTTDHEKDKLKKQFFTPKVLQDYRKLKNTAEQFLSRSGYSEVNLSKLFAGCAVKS

[15] = Antiinflammatory activity in human polymorphonuclear neutrophils assessed as reduction in LPS-stimulated IL-8 release; format: functional, Polymorphonuclear neutrophil; design: scale not given: the % may be the effect or the level left
[16] = Antiinflammatory activity in human polymorphonuclear neutrophils assessed as reduction in LPS-stimulated IL-1beta release; format: functional, Polymorphonuclear neutrophil; design: scale not given: the % may be the effect or the level left
[17] = Antiinflammatory activity in human polymorphonuclear neutrophils assessed as reduction in LPS-stimulated TNFalpha release; format: functional, Polymorphonuclear neutrophil; design: scale not given: the % may be the effect or the level left
[18] = system: MCF7; assay: Antiproliferative activity against human MCF7 cells; format: functional, cell-based
[19] = system: Enterococcus faecalis; assay: Antibacterial activity against Enterococcus faecalis; format: functional
[20] = system: Streptococcus pneumoniae; assay: Antibacterial activity against Streptococcus pneumoniae; format: functional
[21] = Inhibition of yeast pre-mRNA splicing; design: species or system Saccharomyces cerevisiae
[22] = system: SF-268; assay: Antiproliferative activity against human SF-268 cells; format: functional, cell-based
[23] = system: KB; assay: Antiproliferative activity against human KB cells; format: functional, cell-based
[24] = system: NCI-H460; assay: Antiproliferative activity against human NCI-H460 cells; format: functional, cell-based
[25] = target: Neutrophil elastase (Homo sapiens, UniProt P08246); assay: Inhibition of human neutrophil elastase activity assessed as reduction in elastase release
Neutrophil elastase, sequence (P08246 whole entry): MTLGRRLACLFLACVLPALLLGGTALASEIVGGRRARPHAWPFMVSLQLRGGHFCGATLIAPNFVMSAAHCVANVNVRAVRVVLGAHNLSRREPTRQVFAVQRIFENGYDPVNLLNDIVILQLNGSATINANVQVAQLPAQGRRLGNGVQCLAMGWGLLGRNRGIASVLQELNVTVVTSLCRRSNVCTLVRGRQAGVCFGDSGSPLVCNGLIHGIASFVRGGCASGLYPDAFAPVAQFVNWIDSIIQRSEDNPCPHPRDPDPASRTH

[26] = system: MDCK; assay: as §1; format: toxicity, cell-based, Canis lupus familiaris; details: dog, mdck; read-out: TC50 (the source's name)
[27] = system: Influenza A virus; details: mdck
Description: as §2

COC1=CC(=O)c2ccc(=O)oc2[C@]12[C@H](c1c(OC)cc(OC)c3ccc(=O)oc13)[C@H]1[C@H](c3c(OC)cc(OC)c4ccc(=O)oc34)C=C(C)C[C@]1(C)C[C@@H]2C=C(C)C
CC50 [1]: 77.6 µM | selectivity ratio [2]: 7.9 | IC50 [3]: 8.62 µM

CCCCCCCCCCCCCC(=O)C1C(=O)N(Cc2ccccc2)C12C=CC(=O)C=C2 (stereo unspecified)
IC50 ([4]; Plasmodium falciparum, 3D7): 1350 nM | IC50 ([5]; Homo sapiens, Jurkat): 2880 nM | IC50 ([6]; Homo sapiens, K562): 5470 nM

COC1=CC(=O)c2ccc(=O)oc2[C@]12[C@H](C=C(C)C)C[C@]1(C)CC(C)=C[C@H](c3c(OC)cc(OC)c4ccc(=O)oc34)[C@H]1[C@@H]2c1c(OC)cc(OC)c2ccc(=O)oc12
CC50 [1]: 57.7 µM | selectivity ratio [2]: 3.3 | IC50 [3]: 17.5 µM

C/C(=C\C=C/[C@@H](C)/C=C(\C)C(=O)C1[C@@H]2[C@@H](CC(C)C)C(=O)N[C@@]23C[C@]1(O)c1cc(O)c(C)cc1C3=O)C(=O)O (stereo partly specified)
MIC [7]: 31.2 µg/mL (≈ 58.2 µM)

COC1=C[C@@]23CCN(C)[C@@H](Cc4c(CN5CCc6cc(OC)c(O)cc6[C@H]5Cc5ccc(O)cc5)cc(OC)c(O)c42)C3=CC1=O
IC50 [8]: > 40 mM | IC50 [9]: > 40 mM | IC50 [10]: > 40 mM | IC50 [11]: > 40 mM

Cc1cc(C)c2c(c1)OCC(=O)N2c1nc(-c2ccc(Cl)cc2Cl)nn1-c1ccccc1
IC50 [12]: 25.2 µM | IC50 [13]: 2850 nM

COc1cc(O)c2c(c1)C1(C=C(OC(C)=O)C(=O)C=C1C)OC2=O (stereo unspecified)
IC50 [14]: 28 µM

O=C1C=CC2(C=C1)CCc1cc(O)cc(O[C@@H]3C[C@H](CO[C@@H]4OC[C@](O)(COC(=O)/C=C/c5ccc(O)c(O)c5)[C@@H]4O)[C@@H](O)[C@H](O)[C@H]3O)c12
Activity [15]: 28% | Activity [16]: 90% | Activity [17]: 20%

O=C1C=CC2(C=C1)CCc1cc(O)cc(O[C@@H]3C[C@H](CO)[C@@H](O)[C@H](O)[C@H]3O)c12
Activity [15]: 70% | Activity [16]: 105% | Activity [17]: 38%

O=C1C=CC2(C=C1)OCC(=O)N2c1nc(-c2cccs2)nn1-c1ccccc1
IC50 [12]: 0.0453 µM | IC50 [8]: 2.52e-05 mM | IC50 [13]: 0.8 nM | IC50 [18]: 0.00411 µM

CC(C)=CCC[C@]1(C)OC2=C(Cl)C(=O)c3c(O)cc(O)cc3[C@@]23CC(=C(C)C)C[C@@H]13
MIC [19]: 1 µg/mL (≈ 2.33 µM) | MIC [7]: 1 µg/mL (≈ 2.33 µM) | MIC [20]: 8 µg/mL (≈ 18.6 µM)

COC1=CC(=O)c2ccc(=O)oc2[C@@]12[C@H](C=C(C)C)C[C@]1(C)CC(C)=C[C@H](c3c(OC)cc(OC)c4ccc(=O)oc34)[C@H]1[C@@H]2c1c(OC)cc(OC)c2ccc(=O)oc12
CC50 [1]: 77.6 µM | selectivity ratio [2]: 6.9 | IC50 [3]: 11.1 µM

C#CCCCCCCC(=O)C1C(=O)N(Cc2ccccc2)C12C=CC(=O)C=C2 (stereo unspecified)
IC50 ([4]; Plasmodium falciparum, 3D7): 7700 nM | IC50 ([5]; Homo sapiens, Jurkat): 7400 nM | IC50 ([6]; Homo sapiens, K562): 15300 nM

COC1=CC2(C=CC1=O)CCC(=O)O2 (stereo unspecified)
IC50 [21]: 3000 µM

COc1cc(OC(C)=O)c2c(c1)C1(C=C(OC(C)=O)C(=O)C=C1C)OC2=O (stereo unspecified)
IC50 [14]: 0.68 µM

C/C1=C/[C@@H](C)/C=C(\C)C(=O)[C@@H](C)[C@@H]2[C@@H](C)C(=O)N[C@@]23C[C@]24O[C@](C)(C(=O)c5c(O)c(C)cc(c52)C3=O)C14 (stereo partly specified)
MIC [7]: 62.5 µg/mL (≈ 124 µM)

COC(=O)[C@@]1(C2C=CC(=O)C=C2)c2cc(O)cc(O)c2[C@@H](c2ccc(O)cc2)C(=O)c2cc(O)cc(O)c21
IC50 [22]: 29.2 µM | IC50 [23]: 33.2 µM | IC50 [12]: 25.7 µM | IC50 [24]: 32.7 µM | IC50 [18]: 28 µM

COc1cc2c(c3c1CCC(c1ccccc1)O3)C1C3C(c4ccc(O)c(C)c4OC)C(C(O)(OC)c4ccccc4)C14C(C=CC(=O)C4OC)OC3(c1ccccc1)O2 (stereo unspecified)
IC50 [25]: 6.53 µM

CC(C)=CCC[C@]1(C)OC2=C(Cl)C(=O)C=C[C@@]23CC(=C(C)C)C[C@@H]13
MIC [19]: > 64 µg/mL | MIC [7]: > 64 µg/mL | MIC [20]: > 64 µg/mL

COC1=C[C@@H]2[C@@H]3Cc4c(CN5CCc6cc(OC)c(OC)c7c6[C@@H]5CC75C=CC(=O)C=C5)cc(OC)c(O)c4[C@]2(CCN3C)CC1=O
IC50 [8]: 18.5 mM | IC50 [9]: 18.3 mM | IC50 [10]: 17.1 mM | IC50 [11]: 17.4 mM

O=C1CCC2(C=CC(=O)C(NC(=O)c3ccccc3)=C2)O1 (stereo unspecified)
IC50 [21]: 600 µM

CC1=C/[C@@H](C)/C=C(\C)[C@]2(O)[C@H](C)[C@@H]3[C@@H](C(C)C)C(=O)N[C@]34C(=O)c3cc(C)c(O)c(c3C(=O)[C@@H]42)C(=O)\C(C)=C\1
MIC [7]: 31.2 µg/mL (≈ 58.7 µM)

CCCCCCCCCCCCC/C(O)=C1\C(=O)N(Cc2ccccc2)CC12C=CC(=O)C=C2
IC50 ([4]; Plasmodium falciparum, 3D7): 2290 nM | IC50 ([5]; Homo sapiens, Jurkat): 1420 nM | IC50 ([6]; Homo sapiens, K562): 1730 nM

COc1cc(O)cc2c1C(=O)C(Cl)=C1O[C@@](C)(CCC=C(C)C)[C@@H]3CC(=C(C)C)C[C@@]123
MIC [19]: > 64 µg/mL | MIC [7]: > 64 µg/mL | MIC [20]: > 64 µg/mL

COC1=CC(=O)c2ccc(=O)oc2[C@@]12[C@H](c1c(OC)cc(OC)c3ccc(=O)oc13)[C@H]1[C@H](c3c(OC)cc(OC)c4ccc(=O)oc34)C=C(C)C[C@]1(C)C[C@@H]2C=C(C)C
CC50 [1]: 19.2 µM | selectivity ratio [2]: 1.9 | IC50 [3]: 9.86 µM

CC(=O)NC1=CC2(C=CC1=O)CC(NS(=O)(=O)c1ccc(C)cc1)C(=O)O2 (stereo unspecified)
IC50 [21]: 1700 µM

Cc1ccc(S(=O)(=O)NC2CC3(C=CC(=O)C(NC(=O)c4ccccc4)=C3)OC2=O)cc1 (stereo unspecified)
IC50 [21]: 700 µM

O=C1C=CC(=C2C(=O)c3cc(O)cc4c3[C@@](c3ccc(O)cc3)(C(=O)O4)c3cc(O)cc(O)c32)C=C1
IC50 [22]: > 100 µM | IC50 [23]: > 100 µM | IC50 [12]: > 100 µM | IC50 [24]: > 100 µM | IC50 [18]: 99 µM

CC(=O)NC1=CC2(C=CC1=O)CCC(=O)O2 (stereo unspecified)
IC50 [21]: 800 µM

COC1=CC(=O)c2ccc(=O)oc2C12C(C=C(C)C)CC1(C)CC(C)=CC(c3c(OC)cc(OC)c4ccc(=O)oc34)C1C2c1c(OC)cc(OC)c2ccc(=O)oc12 (racemic; form 1)
CC50 [26]: 6.42 µM | IC50 [3]: 3.13 µM

COC1=CC(=O)c2ccc(=O)oc2C12C(C=C(C)C)CC1(C)CC(C)=CC(c3c(OC)cc(OC)c4ccc(=O)oc34)C1C2c1c(OC)cc(OC)c2ccc(=O)oc12 (racemic; form 2)
CC50 [26]: 25.9 µM | IC50 [27]: 2870 nM

CCCCCCCCCCCCN1C(=O)C(C2(OC)CCC3(C=CC(=O)C=C3)O2)C12C=CC(=O)C=C2 (stereo in doubt; 28)
IC50 ([4]; Plasmodium falciparum, 3D7): 1680 nM | IC50 ([5]; jurkat): 350 nM | IC50 ([6]; k562): 620 nM

CCCCCCCCCCCCN1C(=O)C(C2(OC)CCC3(C=CC(=O)C=C3)O2)C12C=CC(=O)C=C2 (stereo in doubt; 29)
IC50 [4]: 910 nM | IC50 ([5]; jurkat): 60 nM | IC50 ([6]; k562): 180 nM

C#CCCCCCCCCCCCN1C(=O)C(C2(OCC)CCC3(C=CC(=O)C=C3)O2)C12C=CC(=O)C=C2 (stereo in doubt; 30)
IC50 ([4]; Plasmodium falciparum, 3D7): 1720 nM | IC50 ([5]; Homo sapiens, Jurkat): 140 nM | IC50 ([6]; Homo sapiens, K562): 320 nM

C#CCCCCCCCCCCCN1C(=O)C(C2(OCC)CCC3(C=CC(=O)C=C3)O2)C12C=CC(=O)C=C2 (stereo in doubt; 31)
IC50 [4]: 1410 nM | IC50 ([5]; jurkat): 150 nM | IC50 ([6]; k562): 360 nM

CCOC(=O)C1=C[C@@H](OC(CC)CC)[C@H](NC(C)=O)[C@@H](N)C1 [OSELTAMIVIR]
CC50 [1]: 3070 µM | selectivity ratio [2]: 910 | IC50 [3]: 3.38 µM

O=c1c(O)c(-c2ccc(O)c(O)c2)oc2cc(O)cc(O)c12 [QUERCETIN]
Activity [15]: 18% | Activity [16]: 4% | Activity [17]: 28%

NC(=O)c1ncn([C@@H]2O[C@H](CO)[C@@H](O)[C@H]2O)n1 [RIBAVIRIN]
CC50 [1]: 4770 µM | selectivity ratio [2]: 771 | IC50 [3]: 6.19 µM
